Laboratory results reported in patent US20230173083A1, “ALBUMIN-BINDING PRODRUG FOR PREVENTING OR TREATING CANCER AND PHARMACEUTICAL COMPOSITION INCLUDING THE SAME” (KOREA INSTITUTE OF SCIENCE AND TECHNOLOGY, priority 2021, published 2023).
No end group written: not given here. DOX = doxorubicin

Experiments:
[1] = test system: MDA-MB-231 cancer tissues; assay: Tumor accumulation by NIRF imaging and CLSM in cancer animal models; type: in vivo, BALB/c nude mice
Protocol: (§1) All animal experiments were conducted in accordance with the guidelines approved by the Institutional Animal Care and Use Committee of Korea Institute of Science and Technology (KIST). BALB/c nude mice (5.5 weeks old, 20-25 g, male) purchased from Nara Bio INC (Gyeonggi-do, Korea) were used as animal models. 1×10^7 MDA-MB-231 cells were inoculated into the left thigh of each of the mice (n=6) to construct establish a cancer animal model. 5 weeks after inoculation, experiments were conducted when cancer volumes were 250-300 mm^3.
(§2) After administration of the drugs, noninvasive near-infrared fluorescence (NIRF) imaging data were obtained using an in vivo fluorescence imaging system (IVIS Luminar III) to assess the in vivo tumor accumulation of the prodrug (Al-ProD). The areas under the curves of the time-concentration curves (AUCs) corresponding to the near-infrared data were calculated using Origin 2020 software.
Animal models were sacrificed 12 h after injection of the drugs and organs (liver, lung, spleen, kidney, and heart) and cancer tissues were excised therefrom. The amounts of the drugs remaining in the major organs and cancer tissues were calculated via fluorescence imaging using IVIS Luminar III. The fluorescence intensities were quantified using the Living Image software (PerkinElmer, USA) and plotted.
The organs and cancer tissues excised from the animal models were sliced into 10 µm thick sections and treated with DAPI solution for 10 min to stain the cell nuclei blue. The fluorescence of DOX or DAPI from the sections was observed using a confocal laser scanning microscope (CLSM).
(§3) Significance was indicated by *P < 0.05, **P < 0.01, ***P < 0.001.

[2] = test system: MDA-MB-231 cancer tissues; assay: Anticancer efficacy in MDA-MB-231 cancer animal models; type: in vivo, BALB/c nude mice; settings: for survival / cancer volume: equimolar to 3 mg/kg doxorubicin, tail vein; for cancer volume: FIG. 21, day not given
Protocol: as §1, with “Specifically, all” for “All”
(§4) Changes in body weight and cancer tissue volume of each group were measured and survivals were analyzed every two days from immediately after injection (day 0). The cancer tissue volume (V; mm^3) was calculated as 0.53 × largest diameter × (smallest diameter)^2. After 20 days, each group was euthanized. Major organs (liver, lung, spleen, kidney, and heart) and cancer tissues were excised and sliced into 10 µm thick sections for histological assays.
(§5) Specifically, the tissues were fixed with 10% formalin, embedded in paraffin, and sectioned to a thickness of 10 µm. The tissue sections were stained with H&E, terminal deoxynucleotidyl transferase dUTP nick-end labeling (TUNEL), and 4,6-diamidino-2-phenylindole (DAPI, Sigma-Aldrich). Structural changes and toxicities in the tissue sections were evaluated using a ZEISS light microscope or fluorescence microscope.
as §3

HSA = HSA (Homo sapiens, UniProt P02768); assay: Formation of albumin-prodrug conjugate with HSA (SDS-PAGE, MALDI-TOF, RP-HPLC); type: binding; settings: for formation of conjugate with HSA (SDS-PAGE band shift to 50-75 kDa): 1% HSA in PBS
Protocol: (§6) To this end, a PBS solution (1 ml) containing 1% albumin (HSA, MSA or BSA) or 1% blocked albumin (blocked HSA, MSA or BSA) was added to 1 mg of the prodrug (Al-ProD) synthesized in Example 1 and incubated at room temperature for various times (0 h, 5 min, and 1 h). After completion of the incubation, samples were analyzed via SDS-PAGE and MALDI-TOF mass spectrometry.
(§7) τ-maleimido butyric acid was added to 1% albumin (HSA, MSA or BSA) for 1 h to block the thiol group of the albumin. In the “Blocking” row in the table of FIG. 5, the plus signs (+) represent the use of blocked albumin.

FIG. 16 = assay: FIG. 16
Text: Table printed on a drawing sheet, FIG. 16
First reader's note: The table stands beside a plasma concentration (%) versus time plot; the AUC cells hold the value ± its error and no AUC unit is printed.

MSA = MSA (Mus musculus, UniProt P07724); assay: Formation of albumin-prodrug conjugate with MSA (SDS-PAGE); type: binding; settings: 1 h; for formation of conjugate with MSA (SDS-PAGE band shift to 50-75 kDa): 1% MSA in PBS, room temperature
MSA, sequence (P07724 25-608): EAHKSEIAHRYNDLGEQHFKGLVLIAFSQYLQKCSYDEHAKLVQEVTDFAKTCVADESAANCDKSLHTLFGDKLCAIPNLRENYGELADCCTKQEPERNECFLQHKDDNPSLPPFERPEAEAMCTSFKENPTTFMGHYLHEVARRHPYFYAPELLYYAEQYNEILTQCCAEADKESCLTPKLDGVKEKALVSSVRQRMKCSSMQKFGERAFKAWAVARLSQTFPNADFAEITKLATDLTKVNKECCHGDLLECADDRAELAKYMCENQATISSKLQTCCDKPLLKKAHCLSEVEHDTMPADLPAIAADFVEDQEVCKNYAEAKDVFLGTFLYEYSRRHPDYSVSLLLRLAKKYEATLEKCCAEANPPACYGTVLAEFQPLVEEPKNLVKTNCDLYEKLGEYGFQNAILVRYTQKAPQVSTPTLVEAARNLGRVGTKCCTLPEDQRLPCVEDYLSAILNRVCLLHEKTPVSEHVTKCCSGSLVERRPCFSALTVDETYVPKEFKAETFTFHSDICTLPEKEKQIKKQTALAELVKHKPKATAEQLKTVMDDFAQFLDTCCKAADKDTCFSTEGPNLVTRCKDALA
Protocol: as §6, §7

BSA = BSA (Bos taurus, UniProt P02769); assay: Formation of albumin-prodrug conjugate with BSA (SDS-PAGE); type: binding, bovine; settings: 1 h; for formation of conjugate with BSA (SDS-PAGE band shift to 50-75 kDa): 1% BSA in PBS, room temperature
BSA, sequence (P02769 25-607): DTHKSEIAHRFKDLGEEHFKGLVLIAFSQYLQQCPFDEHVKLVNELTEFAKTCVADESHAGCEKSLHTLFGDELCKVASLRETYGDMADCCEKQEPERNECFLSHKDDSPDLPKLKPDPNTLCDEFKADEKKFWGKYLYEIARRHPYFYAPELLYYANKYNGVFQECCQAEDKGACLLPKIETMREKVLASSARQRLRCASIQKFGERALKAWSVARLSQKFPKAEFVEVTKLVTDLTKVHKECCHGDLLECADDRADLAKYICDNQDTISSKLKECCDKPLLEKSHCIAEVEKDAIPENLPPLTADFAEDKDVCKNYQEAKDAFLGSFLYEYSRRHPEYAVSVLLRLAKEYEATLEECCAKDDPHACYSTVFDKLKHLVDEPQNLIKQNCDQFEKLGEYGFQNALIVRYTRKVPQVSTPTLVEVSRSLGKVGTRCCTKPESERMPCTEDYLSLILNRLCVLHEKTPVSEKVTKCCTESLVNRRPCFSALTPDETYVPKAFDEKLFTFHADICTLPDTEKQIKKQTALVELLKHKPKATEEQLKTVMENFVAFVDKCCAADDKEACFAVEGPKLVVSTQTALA
Protocol: as §6, §7

[3] = Pharmacokinetics after intravenous administration to cancer animal models; type: in vivo, BALB/c nude mice
Protocol: as §1, §2, §3

[4] = Toxicity (body weight, organ histology) in cancer animal models; type: in vivo, BALB/c nude mice
Protocol: as §1, with “Specifically, all” for “All”
as §4, §5, §3

[5] = test system: rat cardiomyocytes (H9C2); assay: Intracellular behavior of DOX by CLSM in normal cells; type: cell-based; settings: H9C2, 2 µM, 48 h
Protocol: (§8) 2×10^4 cancer cells (breast cancer cells (MDA-MB-231)) and normal cells (H9C2) were seeded in cell culture plates for confocal microscopy. As a control, MDA-MB-231 cells were treated and incubated with Cat-B-inhibitory siRNA for 24 h to inhibit the expression of cathepsin B (“MDA-MB-231 (+Cat-B inhibitor)”). […] Then, cells were washed with Dulbecco’s phosphate buffered saline (DPBS) to remove residual drug. Cells were treated with a cell fixative for 15 min and nuclei were stained blue by treatment with a DAPI solution for 10 min.

[6] = test system: rat cardiomyocytes (H9C2); assay: Cytotoxicity (CCK-8) in normal cells; type: cell-based; settings: 48 h
Protocol: (§9) An in vitro cell experiment was conducted using breast cancer cells (MDA-MB-231) and rat cardiomyocytes (H9C2) to determine the cancer cell-specific cytotoxicity of the albumin-prodrug conjugate (Al-ProD+HSA). Specifically, cells were cultured and maintained in Dulbecco’s modified Eagle’s medium (DMEM) supplemented with 10% fetal bovine serum (FBS) and 1% penicillin/streptomycin in a humid atmosphere at 5% CO2 and 95% air and at 37° C. […]
(§10) Cancer cells (breast cancer cells (MDA-MB-231)) or normal cells (H9C2) were seeded at a density of 2×10^4/well in 96-well cell culture plates. […] Then, each well was treated with […] of CCK solution, followed by incubation for 30 min. The absorbance of each 96-well plate was analyzed using a microplate reader (VERSAmax™, Molecular Devices Corp., Sunnyvale, CA) at 450 nm.

[7] = test system: breast cancer cells (MDA-MB-231); assay: Cytotoxicity (CCK-8) in breast cancer cells; type: cell-based; settings: MDA-MB231 cells, 48 h
Protocol: as §9, §10

[8] = test system: breast cancer cells (MDA-MB-231); assay: Intracellular behavior of DOX by CLSM in breast cancer cells; type: cell-based; settings: MDA-MB-231, 2 µM, 48 h
Protocol: as §8

[9] = equimolar to 3 mg/kg doxorubicin, tail vein

Compound: COc1cccc2c1C(=O)c1c(O)c3c(c(O)c1C2=O)CC(O)(C(=O)CO)CC3OC1CC(NC(=O)CNC(=O)C(CCCNC(=N)N)NC(=O)C(CCCNC(=N)N)NC(=O)C(Cc2ccccc2)NC(=O)CCOCCOCCNC(=O)CCN2C(=O)C=CC2=O)C(O)C(C)O1 (stereo not drawn) [Al-ProD]
- accumulation / retention in cancer tissues (NIRF imaging) ([1]; 0-72 h): a considerable quantity of DOX was retained in cancer tissues even after 72 h
- fluorescence from cancer tissues relative to free DOX group (NIRF in vivo) ([1]; 0-72 h after intravenous administration): 3.33-4.08 fold
- DOX in excised cancer tissue sections (CLSM) ([1]; DAPI-stained sections): strong DOX fluorescence from cancer tissues
- DOX fluorescence from excised cancer tissues relative to free DOX group ([1]; ex vivo, 12 h after intravenous administration): 3.41-4.92 fold
- H&E and TUNEL staining of cancer tissues ([2]; day 20): induced significant damage to and apoptosis of cancer tissues
- survival [2]: over 25 days
- cancer volume [2]: 347.42 ± 25.9 mm^3
- formation of conjugate with HSA (SDS-PAGE band shift to 50-75 kDa) (HSA; room temperature, 1 h): formed a conjugate with each albumin
- time to completion of conjugate formation with HSA (HSA; RP-HPLC, room temperature): ≤ 5 min
- conjugate formation with thiol-blocked HSA (HSA; RP-HPLC, up to 60 min): not formed for 60 min
- formation of conjugate with blocked HSA (SDS-PAGE) (HSA; thiol group of albumin blocked, 1 h): failed to form a conjugate with the blocked albumin
- T1/2 (FIG. 16): 3.1 h
- formation of conjugate with MSA (SDS-PAGE band shift to 50-75 kDa) (MSA): formed a conjugate with each albumin
- formation of conjugate with blocked MSA (SDS-PAGE) (MSA; thiol group of albumin blocked): failed to form a conjugate with the blocked albumin
- formation of conjugate with BSA (SDS-PAGE band shift to 50-75 kDa) (BSA): formed a conjugate with each albumin
- formation of conjugate with blocked BSA (SDS-PAGE) (BSA; thiol group of albumin blocked): failed to form a conjugate with the blocked albumin
- extension of in vivo half-life ([3]; by binding to albumin in vivo): at least 3 times
- time remained in vivo [3, 9]: 50 to 150 h
- half-life ([3]; male, BALB/c nude, mouse, in vivo, 3 mg/kg, read-out: half-life (T½ (h))): ≥ 3 h
- extension of in vivo residence time compared to the simple anticancer drug ([3]; vs free DOX): at least 12 times
- increase of area under the curve (AUC) compared to free DOX ([3]; vs free DOX 3 mg/kg): 7 fold
- H&E staining of normal tissues (heart, lung, liver, kidney, and spleen) ([4]; day 20): no significant damage
- change in body weight [4, 9]: no significant changes

Compound: COc1cccc2c1C(=O)c1c(O)c3c(c(O)c1C2=O)C[C@@](O)(C(=O)CO)C[C@@H]3O[C@H]1C[C@H](N)[C@H](O)[C@H](C)O1 [Free DOX]
- T1/2 (FIG. 16): 0.25 h

Compound: COc1cccc2c1C(=O)c1c(O)c3c(c(O)c1C2=O)C[C@@](O)(C(=O)CO)C[C@@H]3O[C@H]1C[C@H](N)[C@H](O)[C@H](C)O1 [free DOX, doxorubicin, reference compound]
- DOX in excised cancer tissue sections (CLSM) ([1]; mouse, in vivo): a very small quantity
- day on which more than half of the animals had died ([2]; death from systemic toxicity): 15 days
- survival [2]: ≤ 18 days
- cancer volume [2]: 580.25 ± 139.92 mm^3
- intracellular location of DOX fluorescence [5]: penetrated the nuclei of both cancer cells and normal cells
- cytotoxicity [6]: significant cytotoxicities
- cytotoxicity [7]: significant cytotoxicities
- H&E staining of normal tissues (heart, lung, liver, kidney, and spleen) ([4]; mouse, in vivo): significant structural abnormalities were observed in all tissues
- intracellular location of DOX fluorescence [8]: penetrated the nuclei of both cancer cells and normal cells

Compound: FRRG(SEQ ID NO: 1)-DOX (FRRG-{DOX}) [reference compound]
- formation of conjugate with HSA (SDS-PAGE band shift to 50-75 kDa) (HSA; room temperature, 1 h): did not form conjugates with any albumin
- formation of conjugate with MSA (SDS-PAGE band shift to 50-75 kDa) (MSA): did not form conjugates with any albumin
- formation of conjugate with BSA (SDS-PAGE band shift to 50-75 kDa) (BSA): did not form conjugates with any albumin
